The subject of the experiment is dendritic cells in the draining lymph nodes. Briefly: Dendritic cell phenotype in draining lymph nodes after subcutaneous vaccination. It counts as in vivo, C57BL/6J mice. The conditions noted are these: antigen alone as compared to vehicle-treated animals. As to the method: The activity of the polymeric adjuvant B18 was assessed in C57BL/6J mice. Vaccines were prepared by admixing a model peptide antigen (SIINFEKL) with B18 nanoparticles and injected subcutaneously into mice. Following three injections placed three days apart, animals were sacrificed and dendritic cell phenotype in the draining lymph nodes were analyzed using flow cytometry.

Consider SIINFEKL, for which the dendritic cell activation entry is given as “no appreciable dendritic cell activation”.

The record behind these values is US12377153B2, “Poly(beta-thioester) polymers and polymeric nanoparticles” (MASSACHUSETTS INSTITUTE OF TECHNOLOGY, priority 2019, dated 2025).
